Measured values: patent publication US20250311727A1, “SUBSTITUTED 2-AMINOAZINES AND SALTS THEREOF, AND USE THEREOF AS HERBICIDAL ACTIVE SUBSTANCES” (BAYER AKTIENGESELLSCHAFT, priority 2022, published 2025)

What was measured:
Assay type in all cases: in vivo
Veronica persica [1] = assay: Post-emergence herbicidal efficacy at 320 g/ha, VERPE; settings: rated visually after about 3 weeks vs untreated controls, 100% = plants have died
Source text: (§1) Unwanted plants/weeds: • ABUTH: Abutilon theophrasti • ALOMY: Alopecurus myosuroides • AMARE: Amaranthus retroflexus • DIGSA: Digitaria sanguinalis • ECHCG: Echinochloa crus-galli • KCHSC: Kochia scoparia • LOLRI: Lolium rigidum • MATIN: Matricaria inodora • POAAN: Poa annua • POLCO: Polygonum convolvulus • SETVI: Setaria viridis • STEME: Stellaria media • VERPE: Veronica persica • VIOTR: Viola tricolor A. Post-Emergence Herbicidal Efficacy at 320 g/ha
(§2) Seeds of mono- and dicotyledonous weed plants were placed in plastic pots in sandy loam soil (doubly sown with in each case one species of mono- or dicotyledonous weed plants per pot), covered with soil and cultivated in a greenhouse under controlled growth conditions. 2 to 3 weeks after sowing, the test plants were treated at the one-leaf stage. The compounds of the invention, formulated in the form of wettable powders (WP) or as emulsion concentrates (EC), were applied to the green parts of the plants as aqueous suspension or emulsion with addition of 0.5% additive at a water application rate equivalent to 600 litres per hectare. After the test plants had been kept in the greenhouse under optimum growth conditions for about 3 weeks, the activity of the preparations was rated visually in comparison to untreated controls.
(§3) For example, 100% activity=the plants have died, 0% activity=like control plants.
(§4) Tables A1 to A10 below show the effects of selected compounds of the general formula (I) according to Table 1 on various harmful plants and at an application rate corresponding to 320 g/ha, which were obtained by the trial procedure specified above.

Poa annua [2] = assay: Post-emergence herbicidal efficacy at 320 g/ha, POAAN; settings: rated visually after about 3 weeks vs untreated controls, 100% = plants have died
Source text: as §1, §2, §3, §4

Kochia scoparia [3] = assay: Post-emergence herbicidal efficacy at 320 g/ha, KCHSC; settings: rated visually after about 3 weeks vs untreated controls, 100% = plants have died
Source text: as §1, §2, §3, §4

Amaranthus retroflexus [4] = assay: Post-emergence herbicidal efficacy at 320 g/ha, AMARE; settings: rated visually after about 3 weeks vs untreated controls, 100% = plants have died
Source text: as §1, §2, §3, §4

Stellaria media [5] = assay: Pre-emergence herbicide efficacy at 320 g/ha, STEME; settings: scored visually after about 3 weeks vs untreated controls, 100% = plants have died
Source text: as §1
(§5) Seeds of mono- and dicotyledonous weed plants were placed in plastic pots in sandy loam soil (doubly sown with one species each of mono- or dicotyledonous weed plants per pot) and covered with soil. The compounds of the invention, formulated in the form of wettable powders (WP) or as emulsion concentrates (EC), were then applied to the surface of the covering soil as aqueous suspension or emulsion with addition of 0.5% additive at a water application rate of 600 litres per hectare (converted). After the treatment, the pots were placed in a greenhouse and kept under good growth conditions for the test plants. After about 3 weeks, the efficacy of the preparations was scored visually in comparison with untreated controls as percentages.
as §3
(§6) Tables C1 to C12 below show the effects of selected compounds of the general formula (I) according to Table 1 on various harmful plants and at an application rate corresponding to 320 g/ha, which were obtained by the trial procedure specified above.

Digitaria sanguinalis [6] = assay: Pre-emergence herbicide efficacy at 320 g/ha, DIGSA; settings: scored visually after about 3 weeks vs untreated controls, 100% = plants have died
Source text: as §1, §5, §3, §6

Matricaria inodora = assay: Pre-emergence herbicide efficacy at 320 g/ha, MATIN; settings: scored visually after about 3 weeks vs untreated controls, 100% = plants have died
Source text: as §1, §5, §3, §6

Stellaria media [7] = assay: Post-emergence herbicidal efficacy at 320 g/ha, STEME; settings: rated visually after about 3 weeks vs untreated controls, 100% = plants have died
Source text: as §1, §2, §3, §4

Setaria viridis [8] = assay: Pre-emergence herbicide efficacy at 320 g/ha, SETVI; settings: scored visually after about 3 weeks vs untreated controls, 100% = plants have died
Source text: as §1, §5, §3, §6

Amaranthus retroflexus [9] = assay: Pre-emergence herbicide efficacy at 320 g/ha, AMARE; settings: scored visually after about 3 weeks vs untreated controls, 100% = plants have died
Source text: as §1, §5, §3, §6

Poa annua [10] = assay: Pre-emergence herbicide efficacy at 320 g/ha, POAAN; settings: scored visually after about 3 weeks vs untreated controls, 100% = plants have died
Source text: as §1, §5, §3, §6

Veronica persica [11] = assay: Pre-emergence herbicide efficacy at 320 g/ha, VERPE; settings: scored visually after about 3 weeks vs untreated controls, 100% = plants have died
Source text: as §1, §5, §3, §6

Digitaria sanguinalis [12] = assay: Post-emergence herbicidal efficacy at 320 g/ha, DIGSA; settings: rated visually after about 3 weeks vs untreated controls, 100% = plants have died
Source text: as §1, §2, §3, §4

Kochia scoparia [13] = assay: Pre-emergence herbicide efficacy at 320 g/ha, KCHSC; settings: scored visually after about 3 weeks vs untreated controls, 100% = plants have died
Source text: as §1, §5, §3, §6

Setaria viridis [14] = assay: Post-emergence herbicidal efficacy at 320 g/ha, SETVI; settings: rated visually after about 3 weeks vs untreated controls, 100% = plants have died
Source text: as §1, §2, §3, §4

Echinochloa crus-galli [15] = assay: Pre-emergence herbicide efficacy at 320 g/ha, ECHCG; settings: scored visually after about 3 weeks vs untreated controls, 100% = plants have died
Source text: as §1, §5, §3, §6

Echinochloa crus-galli [16] = assay: Post-emergence herbicidal efficacy at 320 g/ha, ECHCG; settings: rated visually after about 3 weeks vs untreated controls, 100% = plants have died
Source text: as §1, §2, §3, §4

Abutilon theophrasti = assay: Post-emergence herbicidal efficacy at 320 g/ha, ABUTH; settings: rated visually after about 3 weeks vs untreated controls, 100% = plants have died
Source text: as §1, §2, §3, §4

Amaranthus retroflexus [17] = assay: Post-emergence herbicidal efficacy at 80 g/ha, AMARE; settings: rated visually after about 3 weeks vs untreated controls, 100% = plants have died
Source text: as §1
(§7) Seeds of monocotyledonous and dicotyledonous weeds and crop plants were placed in sandy loam in plastic or organic planting pots, covered with soil and cultivated in a greenhouse under controlled growth conditions. 2 to 3 weeks after sowing, the test plants were treated at the one-leaf stage. The compounds of the invention, formulated in the form of wettable powders (WP) or as emulsion concentrates (EC), were then sprayed onto the green parts of the plants as aqueous suspension or emulsion with addition of 0.5% additive at a water application rate of 600 l/ha (converted). After the test plants had been kept in the greenhouse under optimum growth conditions for about 3 weeks, the activity of the preparations was rated visually in comparison to untreated controls. For example, 100% activity=the plants have died, 0% activity=like control plants.
(§8) Tables B1 to B11 below show the effects of selected compounds of the general formula (I) according to Table 1 on various harmful plants and an application rate corresponding to 80 g/ha, which were obtained by the experimental procedure mentioned above.

Digitaria sanguinalis [18] = assay: Pre-emergence herbicide efficacy at 80 g/ha, DIGSA; settings: scored visually after about 3 weeks vs untreated controls, 100% = plants have died
Source text: as §1
(§9) Seeds of monocotyledonous and dicotyledonous weed plants and crop plants were placed in plastic or organic planting pots and covered with soil. The compounds of the invention, formulated in the form of wettable powders (WP) or as emulsion concentrates (EC), were then applied to the surface of the covering soil as aqueous suspension or emulsion with addition of 0.5% additive at a water application rate equivalent to 600 l/ha. After the treatment, the pots were placed in a greenhouse and kept under good growth conditions for the test plants. After about 3 weeks, the efficacy of the preparations was scored visually in comparison with untreated controls as percentages. For example, 100% activity=the plants have died, 0% activity=like control plants.
(§10) Tables D1 to D12 below show the effects of selected compounds of the general formula (I) according to Table 1 on various harmful plants and an application rate corresponding to 80 g/ha, which were obtained by the experimental procedure mentioned above.

Kochia scoparia [19] = assay: Pre-emergence herbicide efficacy at 80 g/ha, KCHSC; settings: scored visually after about 3 weeks vs untreated controls, 100% = plants have died
Source text: as §1, §9, §10

Amaranthus retroflexus [20] = assay: Pre-emergence herbicide efficacy at 80 g/ha, AMARE; settings: scored visually after about 3 weeks vs untreated controls, 100% = plants have died
Source text: as §1, §9, §10

Kochia scoparia [21] = assay: Post-emergence herbicidal efficacy at 80 g/ha, KCHSC; settings: rated visually after about 3 weeks vs untreated controls, 100% = plants have died
Source text: as §1, §7, §8

Veronica persica [22] = assay: Post-emergence herbicidal efficacy at 80 g/ha, VERPE; settings: rated visually after about 3 weeks vs untreated controls, 100% = plants have died
Source text: as §1, §7, §8

Viola tricolor = assay: Pre-emergence herbicide efficacy at 80 g/ha, VIOTR
Source text: as §1, §9, §10

Setaria viridis [23] = assay: Pre-emergence herbicide efficacy at 80 g/ha, SETVI
Source text: as §1, §9, §10

SMILES | Post-emergence efficacy at 320 g/ha against VERPE in % (Veronica persica [1]) [%] | Post-emergence efficacy at 320 g/ha against KCHSC in % (Kochia scoparia [3]) [%] | Post-emergence efficacy at 320 g/ha against AMARE in % (Amaranthus retroflexus [4]) [%] | Pre-emergence efficacy at 320 g/ha against STEME in % (Stellaria media [5]) [%] | Pre-emergence efficacy at 320 g/ha against DIGSA in % (Digitaria sanguinalis [6]) [%] | Pre-emergence efficacy at 320 g/ha against MATIN in % (Matricaria inodora) [%] | Post-emergence efficacy at 320 g/ha against STEME in % (Stellaria media [7]) [%] | Pre-emergence efficacy at 320 g/ha against SETVI in % (Setaria viridis [8]) [%] | Pre-emergence efficacy at 320 g/ha against AMARE in % (Amaranthus retroflexus [9]) [%] | Pre-emergence efficacy at 320 g/ha against POAAN in % (Poa annua [10]) [%] | Pre-emergence efficacy at 320 g/ha against VERPE in % (Veronica persica [11]) [%] | Pre-emergence efficacy at 320 g/ha against KCHSC in % (Kochia scoparia [13]) [%] | Post-emergence efficacy at 320 g/ha against ABUTH in % (Abutilon theophrasti) [%] | also measured
FC(F)(F)CCCCc1ccccc1Nc1ncc(Cl)cn1 [Example 1-2] | 100 | 90 | 100 | – | – | – | – | – | – | – | – | – | – | Post-emergence efficacy at 320 g/ha against POAAN in % (Poa annua [2]): 90%
N#Cc1cccc(Nc2ncc(Cl)cn2)c1Cc1ccc(F)cc1 [Example 1-23] | 100 | – | 100 | 90 | 90 | 100 | 100 | 100 | 100 | 100 | 90 | – | – | Post-emergence efficacy at 320 g/ha against POAAN in % (Poa annua [2]): 100%
N#Cc1cccc(Nc2ncc(Cl)cn2)c1-c1ccc(F)c(F)c1 [Example 1-29] | 100 | 100 | 100 | – | – | – | 90 | – | 100 | – | – | – | – | Post-emergence efficacy at 320 g/ha against DIGSA in % (Digitaria sanguinalis [12]): 90%
N#Cc1cccc(Nc2ncc(F)cn2)c1-c1ccc(F)c(F)c1 [Example 1-30] | 100 | 100 | 100 | 100 | 100 | 90 | 100 | 100 | 100 | 90 | 100 | 90 | – | –
N#Cc1cccc(Nc2ncccn2)c1-n1cc(C(F)(F)F)cn1 [Example 1-40] | 90 | – | 90 | – | – | 90 | – | – | 100 | – | – | 90 | – | –
N#Cc1cnc(Nc2cccc(C#N)c2-n2cc(C(F)(F)F)cn2)nc1 [Example 1-42] | 90 | 90 | 100 | 90 | 100 | 100 | – | 90 | 90 | – | – | 90 | – | –
Fc1cccc(Nc2ncc(Cl)cn2)c1-n1cc(C(F)(F)F)cn1 [Example 1-47] | 90 | – | 90 | 90 | 90 | – | 90 | 100 | 100 | 100 | 100 | – | 90 | Post-emergence efficacy at 320 g/ha against DIGSA in % (Digitaria sanguinalis [12]): 90%; Post-emergence efficacy at 320 g/ha against SETVI in % (Setaria viridis [14]): 90%; Pre-emergence efficacy at 320 g/ha against ECHCG in % (Echinochloa crus-galli [15]): 100%; Post-emergence efficacy at 320 g/ha against ECHCG in % (Echinochloa crus-galli [16]): 90%
Clc1cnc(Cc2ccccc2Nc2ncc(Cl)cn2)nc1 [Example 1-51] | – | – | – | – | – | – | – | – | – | – | – | – | – | Post-emergence efficacy at 80 g/ha against AMARE in % (Amaranthus retroflexus [17]): 100%; Pre-emergence efficacy at 80 g/ha against DIGSA in % (Digitaria sanguinalis [18]): 80%; Pre-emergence efficacy at 80 g/ha against KCHSC in % (Kochia scoparia [19]): 100%; Pre-emergence efficacy at 80 g/ha against AMARE in % (Amaranthus retroflexus [20]): 100%; Post-emergence efficacy at 80 g/ha against KCHSC in % (Kochia scoparia [21]): 100%; Post-emergence efficacy at 80 g/ha against VERPE in % (Veronica persica [22]): 80%
Cc1cnn(-c2c(C#N)cccc2Nc2ncc(F)cn2)c1 [Example 1-67] | 100 | 90 | 100 | 100 | – | – | 100 | 100 | 100 | 90 | 90 | 100 | 90 | Pre-emergence efficacy against VIOTR (Viola tricolor): 90%; Post-emergence efficacy at 80 g/ha against AMARE in % (Amaranthus retroflexus [17]): 100%; Pre-emergence efficacy at 320 g/ha against ECHCG in % (Echinochloa crus-galli [15]): 100%; Pre-emergence efficacy against SETVI (Setaria viridis [23]): 100%; Pre-emergence efficacy at 80 g/ha against AMARE in % (Amaranthus retroflexus [20]): 100%; Post-emergence efficacy at 80 g/ha against KCHSC in % (Kochia scoparia [21]): 90%; Post-emergence efficacy at 80 g/ha against VERPE in % (Veronica persica [22]): 90%
COCc1cnn(-c2c(C#N)cccc2Nc2ncc(Cl)cn2)c1 [Example 1-68] | 100 | 100 | 100 | – | 100 | – | 100 | – | 100 | – | 90 | 100 | 90 | Post-emergence efficacy at 320 g/ha against SETVI in % (Setaria viridis [14]): 90%
